Measured values as given in article PMC3433650 (Journal of neurochemistry, 2012).

Tested on: rat and human α9α10 nAChRs
Assay: ACh-evoked currents in Xenopus oocytes expressing rat or human α9α10 nAChRs
Format: cell-based
Settings: 100 µM ACh

## CC(=O)OCC[N+](C)(C)C [ACh, Acetylcholine chloride]
  ACh-evoked current, rat vs human α9α10 (in words): generally evoked larger currents in Xenopus oocytes expressing rat α9α10 nAChRs than in oocytes expressing human α9α10 nAChRs
